Reference: the NIST ThermoML archive (doi:10.1016/j.fluid.2017.01.019)
± gives the expanded uncertainty stated by the source.

How the values were obtained:
[1] = 101.33 kPa, Liquid; for viscosity: Falling or rolling sphere viscometry; for speed of sound: Sing-around technique in a fixed-path interferometer; for mass density: Vibrating tube method
[2] = xn = mol fraction of the nth substance listed; conditions: 100 kPa, Liquid, x2 = 0; for mass density: Vibrating tube method; for viscosity: Falling or rolling sphere viscometry; for speed of sound: Frequency=3 MHz, Sing-around technique in a fixed-path interferometer

With `CCOS(=O)(=O)[O-].CCn1cc[n+](C)c1` [1-ethyl-3-methylimidazolium ethyl sulfate] as the molecule, how does the viscosity ([1]; 298.15 K) read?
The viscosity was 96.21 ± 3.2 mPa·s.

And the speed of sound ([1]; 298.15 K)?
Its speed of sound is 1682.3 ± 5.1 m/s.

And the mass density ([1]; 298.15 K)?
Its mass density is 1236.33 ± 8.3 kg/m3.

And the viscosity ([1]; 303.15 K)?
Its viscosity is 75.89 ± 2.2 mPa·s.

What about the speed of sound ([1]; 303.15 K) of the same molecule?
The speed of sound was 1670 ± 5.1 m/s.

What about the mass density ([1]; 303.15 K) of the same molecule?
Its mass density is 1232.93 ± 8.3 kg/m3.

What about the viscosity ([1]; 308.15 K) of the same molecule?
The viscosity was 60.73 ± 1.6 mPa·s.

And the speed of sound ([1]; 308.15 K)?
Its speed of sound is 1657.9 ± 5.1 m/s.

And the mass density ([1]; 308.15 K)?
Its mass density is 1229.57 ± 8.2 kg/m3.

And the viscosity ([1]; 313.15 K)?
The viscosity was 49.38 ± 1.3 mPa·s.

And the speed of sound ([1]; 313.15 K)?
The speed of sound was 1645.9 ± 5.1 m/s.

And the mass density ([1]; 313.15 K)?
The mass density was 1226.21 ± 8.2 kg/m3.

What about the viscosity ([1]; 318.15 K) of the same molecule?
The viscosity was 40.93 ± 1.1 mPa·s.

And the speed of sound ([1]; 318.15 K)?
Its speed of sound is 1634.1 ± 5.1 m/s.

What about the mass density ([1]; 318.15 K) of the same molecule?
Its mass density is 1222.87 ± 8.1 kg/m3.

What about the viscosity ([1]; 323.15 K) of the same molecule?
Its viscosity is 33.82 ± 0.89 mPa·s.

And the speed of sound ([1]; 323.15 K)?
Its speed of sound is 1622.3 ± 5.1 m/s.

And the mass density ([1]; 323.15 K)?
The mass density was 1219.54 ± 8.1 kg/m3.

For `CCCCO` [butan-1-ol], which viscosity ([1]; 298.15 K) is on record?
Its viscosity is 2.61 ± 0.15 mPa·s.

What about the speed of sound ([1]; 298.15 K) of the same molecule?
The speed of sound was 1239.8 ± 1.3 m/s.

What about the mass density ([1]; 298.15 K) of the same molecule?
The mass density was 806.27 ± 0.24 kg/m3.

And the viscosity ([1]; 303.15 K)?
The viscosity was 2.31 ± 0.15 mPa·s.

And the speed of sound ([1]; 303.15 K)?
Its speed of sound is 1223.2 ± 1.3 m/s.

And the mass density ([1]; 303.15 K)?
The mass density was 802.42 ± 0.24 kg/m3.

And the viscosity ([1]; 308.15 K)?
Its viscosity is 2.07 ± 0.15 mPa·s.

What about the speed of sound ([1]; 308.15 K) of the same molecule?
Its speed of sound is 1206.3 ± 1.3 m/s.

And the mass density ([1]; 308.15 K)?
Its mass density is 798.536 ± 0.24 kg/m3.

And the viscosity ([1]; 313.15 K)?
Its viscosity is 1.85 ± 0.15 mPa·s.

What about the speed of sound ([1]; 313.15 K) of the same molecule?
Its speed of sound is 1189.7 ± 1.2 m/s.

What about the mass density ([1]; 313.15 K) of the same molecule?
The mass density was 794.617 ± 0.24 kg/m3.

And the viscosity ([1]; 318.15 K)?
Its viscosity is 1.66 ± 0.15 mPa·s.

And the speed of sound ([1]; 318.15 K)?
Its speed of sound is 1173.1 ± 1.2 m/s.

What about the mass density ([1]; 318.15 K) of the same molecule?
The mass density was 790.655 ± 0.24 kg/m3.

What about the viscosity ([1]; 323.15 K) of the same molecule?
Its viscosity is 1.5 ± 0.15 mPa·s.

And the speed of sound ([1]; 323.15 K)?
Its speed of sound is 1156.5 ± 1.2 m/s.

What about the mass density ([1]; 323.15 K) of the same molecule?
Its mass density is 786.645 ± 0.24 kg/m3.

Which mass density ([2]; 289.15 K) does the source give for `CCCCO` [butan-1-ol] + CCOS(=O)(=O)[O-].CCn1cc[n+](C)c1 here?
Its mass density is 806.27 ± 0.23 kg/m3.

What about the viscosity ([2]; 298.15 K) of the same molecule?
The viscosity was 2.61 ± 0.15 mPa·s.

What about the speed of sound ([2]; 298.15 K) of the same molecule?
The speed of sound was 1241.1 ± 1.3 m/s.

And the viscosity ([2]; 303.15 K)?
The viscosity was 2.31 ± 0.15 mPa·s.

What about the speed of sound ([2]; 303.15 K) of the same molecule?
The speed of sound was 1224.3 ± 1.3 m/s.

And the mass density ([2]; 303.15 K)?
The mass density was 802.42 ± 0.24 kg/m3.

And the viscosity ([2]; 308.15 K)?
The viscosity was 2.07 ± 0.15 mPa·s.

What about the speed of sound ([2]; 308.15 K) of the same molecule?
Its speed of sound is 1207.5 ± 1.3 m/s.

And the mass density ([2]; 308.15 K)?
The mass density was 798.536 ± 0.24 kg/m3.

What about the viscosity ([2]; 313.15 K) of the same molecule?
The viscosity was 1.85 ± 0.15 mPa·s.

What about the speed of sound ([2]; 313.15 K) of the same molecule?
Its speed of sound is 1190.9 ± 1.3 m/s.

And the mass density ([2]; 313.15 K)?
The mass density was 794.617 ± 0.24 kg/m3.

What about the viscosity ([2]; 318.15 K) of the same molecule?
The viscosity was 1.66 ± 0.15 mPa·s.

What about the speed of sound ([2]; 318.15 K) of the same molecule?
Its speed of sound is 1174.2 ± 1.2 m/s.

What about the mass density ([2]; 318.15 K) of the same molecule?
The mass density was 790.655 ± 0.24 kg/m3.

What about the viscosity ([2]; 323.15 K) of the same molecule?
The viscosity was 1.5 ± 0.15 mPa·s.

What about the speed of sound ([2]; 323.15 K) of the same molecule?
Its speed of sound is 1157.6 ± 1.2 m/s.

What about the mass density ([2]; 323.15 K) of the same molecule?
The mass density was 786.645 ± 0.24 kg/m3.

Which results are given for `CO` [methanol]?
viscosity ([1]; 298.15 K): 0.55 ± 0.15 mPa·s; speed of sound ([1]; 298.15 K): 1103.3 ± 1.2 m/s; mass density ([1]; 298.15 K): 786.884 ± 0.24 kg/m3; viscosity ([1]; 303.15 K): 0.51 ± 0.15 mPa·s; speed of sound ([1]; 303.15 K): 1086.9 ± 1.2 m/s; mass density ([1]; 303.15 K): 782.158 ± 0.24 kg/m3; viscosity ([1]; 308.15 K): 0.48 ± 0.15 mPa·s; speed of sound ([1]; 308.15 K): 1070.6 ± 1.2 m/s; mass density ([1]; 308.15 K): 777.414 ± 0.24 kg/m3; viscosity ([1]; 313.15 K): 0.45 ± 0.15 mPa·s; speed of sound ([1]; 313.15 K): 1054.5 ± 1.2 m/s; mass density ([1]; 313.15 K): 772.64 ± 0.24 kg/m3; viscosity ([1]; 318.15 K): 0.43 ± 0.15 mPa·s; speed of sound ([1]; 318.15 K): 1038.5 ± 1.2 m/s; mass density ([1]; 318.15 K): 767.844 ± 0.24 kg/m3; viscosity ([1]; 323.15 K): 0.41 ± 0.15 mPa·s; speed of sound ([1]; 323.15 K): 1022.5 ± 1.2 m/s; mass density ([1]; 323.15 K): 763.028 ± 0.24 kg/m3

Which viscosity ([2]; 293.15 K) does the source give for `CO` [methanol] + CCCCO here?
Its viscosity is 0.55 ± 0.15 mPa·s.

And the speed of sound ([2]; 298.15 K)?
The speed of sound was 1103.3 ± 1.2 m/s.

What about the mass density ([2]; 298.15 K) of the same molecule?
The mass density was 786.884 ± 0.24 kg/m3.

What about the viscosity ([2]; 303.15 K) of the same molecule?
The viscosity was 0.51 ± 0.15 mPa·s.

What about the speed of sound ([2]; 303.15 K) of the same molecule?
The speed of sound was 1086.9 ± 1.2 m/s.

What about the mass density ([2]; 303.15 K) of the same molecule?
Its mass density is 782.158 ± 0.24 kg/m3.

What about the viscosity ([2]; 308.15 K) of the same molecule?
Its viscosity is 0.48 ± 0.15 mPa·s.

What about the speed of sound ([2]; 308.15 K) of the same molecule?
Its speed of sound is 1070.6 ± 1.2 m/s.

What about the mass density ([2]; 308.15 K) of the same molecule?
The mass density was 777.414 ± 0.24 kg/m3.

And the viscosity ([2]; 313.15 K)?
The viscosity was 0.45 ± 0.15 mPa·s.

And the speed of sound ([2]; 313.15 K)?
The speed of sound was 1054.5 ± 1.2 m/s.

And the mass density ([2]; 313.15 K)?
Its mass density is 772.64 ± 0.24 kg/m3.

And the viscosity ([2]; 318.15 K)?
Its viscosity is 0.43 ± 0.15 mPa·s.

What about the speed of sound ([2]; 318.15 K) of the same molecule?
Its speed of sound is 1038.5 ± 1.2 m/s.

What about the mass density ([2]; 318.15 K) of the same molecule?
The mass density was 767.844 ± 0.24 kg/m3.

And the viscosity ([2]; 323.15 K)?
Its viscosity is 0.41 ± 0.15 mPa·s.

What about the speed of sound ([2]; 323.15 K) of the same molecule?
Its speed of sound is 1022.5 ± 1.2 m/s.

And the mass density ([2]; 323.15 K)?
Its mass density is 763.028 ± 0.24 kg/m3.

What does the source list for `CO` [methanol] + CCOS(=O)(=O)[O-].CCn1cc[n+](C)c1?
viscosity ([2]; 298.15 K): 0.55 ± 0.15 mPa·s; mass density ([2]; 298.15 K): 786.884 ± 0.24 kg/m3; viscosity ([2]; 303.15 K): 0.51 ± 0.15 mPa·s; speed of sound ([2]; 303.15 K): 1086.9 ± 1.2 m/s; mass density ([2]; 303.15 K): 782.158 ± 0.24 kg/m3; viscosity ([2]; 308.15 K): 0.48 ± 0.15 mPa·s; speed of sound ([2]; 308.15 K): 1070.6 ± 1.2 m/s; mass density ([2]; 308.15 K): 777.414 ± 0.24 kg/m3; viscosity ([2]; 313.15 K): 0.45 ± 0.15 mPa·s; speed of sound ([2]; 313.15 K): 1054.5 ± 1.2 m/s; mass density ([2]; 313.15 K): 772.64 ± 0.24 kg/m3; viscosity ([2]; 318.15 K): 0.43 ± 0.15 mPa·s; speed of sound ([2]; 318.15 K): 1038.5 ± 1.2 m/s; mass density ([2]; 318.15 K): 767.844 ± 0.24 kg/m3; viscosity ([2]; 323.15 K): 0.41 ± 0.15 mPa·s; speed of sound ([2]; 323.15 K): 1022.5 ± 1.2 m/s; mass density ([2]; 323.15 K): 763.028 ± 0.24 kg/m3
